Measurements taken from ChEMBL document CHEMBL4725332, “The design of a novel near-infrared fluorescent HDAC inhibitor and image of tumor cells” (Bioorg Med Chem, 2020).
Calls of active or inactive are those of the source. No cut-off for these calls is given here.

What was measured:
[1] = Absorption property of the compound assessed as maximum absorption wavelength at 5 uM under pH condition 7.4 by fluorescence spectrophotometric method; type: physicochemical
[2] = Emission property of the compound assessed as maximum wavelength at 5 uM under pH condition 7.4 at excitation wavelength by fluorescence spectrophotometric method; type: physicochemical
[3] = Emission property of the compound assessed as fluorescence at 5 uM under acidic condition at pH 4 by fluorescence spectrophotometric method; type: physicochemical; details: pH 4, 5 µM
Histone deacetylase 1 = Histone deacetylase 1 (Homo sapiens, UniProt Q13547); assay: Inhibition of human recombinant HDAC1 expressed in baculovirus infected High5 insect cells using Ac-Lys-Tyr-Lys(e-acetyl)-AMC as substrate incubated for 24 hrs measured after 30 mins by microplate reader based spectrophotometric analysis; set-up: species or system BTI-TN-5B1-4
Sequence of Histone deacetylase 1 (Q13547 whole entry): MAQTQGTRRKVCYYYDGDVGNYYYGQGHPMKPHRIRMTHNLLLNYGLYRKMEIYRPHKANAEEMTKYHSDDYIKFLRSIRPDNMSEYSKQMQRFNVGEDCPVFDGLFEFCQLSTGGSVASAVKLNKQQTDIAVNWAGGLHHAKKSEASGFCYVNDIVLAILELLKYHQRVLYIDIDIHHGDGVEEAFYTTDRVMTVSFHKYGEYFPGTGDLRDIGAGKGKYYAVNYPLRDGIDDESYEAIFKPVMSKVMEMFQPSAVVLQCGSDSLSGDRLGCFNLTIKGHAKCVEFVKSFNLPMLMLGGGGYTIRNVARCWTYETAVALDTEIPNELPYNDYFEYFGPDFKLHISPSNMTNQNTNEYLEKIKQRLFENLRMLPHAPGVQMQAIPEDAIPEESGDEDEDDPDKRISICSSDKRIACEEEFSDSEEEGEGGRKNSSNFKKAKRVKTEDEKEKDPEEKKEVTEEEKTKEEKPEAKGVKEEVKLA

Histone deacetylase 3 = Histone deacetylase 3 (Homo sapiens, UniProt O15379); assay: Inhibition of human recombinant HDAC3 expressed in baculovirus infected High5 insect cells using Ac-Lys-Tyr-Lys(e-acetyl)-AMC as substrate incubated for 24 hrs measured after 30 mins by microplate reader based spectrophotometric analysis; set-up: species or system BTI-TN-5B1-4
Sequence of Histone deacetylase 3 (O15379 whole entry): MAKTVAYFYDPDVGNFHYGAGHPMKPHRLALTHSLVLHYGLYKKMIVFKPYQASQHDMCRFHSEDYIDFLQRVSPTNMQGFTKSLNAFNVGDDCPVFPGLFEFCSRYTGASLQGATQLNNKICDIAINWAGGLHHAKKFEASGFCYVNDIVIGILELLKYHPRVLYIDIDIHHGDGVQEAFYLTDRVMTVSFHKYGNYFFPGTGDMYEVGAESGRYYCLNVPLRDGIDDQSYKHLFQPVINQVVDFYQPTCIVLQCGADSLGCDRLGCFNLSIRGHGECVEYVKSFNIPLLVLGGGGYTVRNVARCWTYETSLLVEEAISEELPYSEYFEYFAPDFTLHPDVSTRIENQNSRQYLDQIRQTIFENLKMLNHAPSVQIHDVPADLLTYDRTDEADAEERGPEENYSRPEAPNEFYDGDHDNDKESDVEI

[4] = biological target: T1, Protein deacetylase HDAC6 (Homo sapiens, UniProt Q9UBN7); assay: Inhibition of human recombinant HDAC6 expressed in baculovirus infected High5 insect cells using Boc-Lys(eacety1)-AMC as substrate incubated for 3 hrs measured after 30 mins by microplate reader based spectrophotometric analysis; set-up: species or system BTI-TN-5B1-4
T1 sequence (Q9UBN7 whole entry): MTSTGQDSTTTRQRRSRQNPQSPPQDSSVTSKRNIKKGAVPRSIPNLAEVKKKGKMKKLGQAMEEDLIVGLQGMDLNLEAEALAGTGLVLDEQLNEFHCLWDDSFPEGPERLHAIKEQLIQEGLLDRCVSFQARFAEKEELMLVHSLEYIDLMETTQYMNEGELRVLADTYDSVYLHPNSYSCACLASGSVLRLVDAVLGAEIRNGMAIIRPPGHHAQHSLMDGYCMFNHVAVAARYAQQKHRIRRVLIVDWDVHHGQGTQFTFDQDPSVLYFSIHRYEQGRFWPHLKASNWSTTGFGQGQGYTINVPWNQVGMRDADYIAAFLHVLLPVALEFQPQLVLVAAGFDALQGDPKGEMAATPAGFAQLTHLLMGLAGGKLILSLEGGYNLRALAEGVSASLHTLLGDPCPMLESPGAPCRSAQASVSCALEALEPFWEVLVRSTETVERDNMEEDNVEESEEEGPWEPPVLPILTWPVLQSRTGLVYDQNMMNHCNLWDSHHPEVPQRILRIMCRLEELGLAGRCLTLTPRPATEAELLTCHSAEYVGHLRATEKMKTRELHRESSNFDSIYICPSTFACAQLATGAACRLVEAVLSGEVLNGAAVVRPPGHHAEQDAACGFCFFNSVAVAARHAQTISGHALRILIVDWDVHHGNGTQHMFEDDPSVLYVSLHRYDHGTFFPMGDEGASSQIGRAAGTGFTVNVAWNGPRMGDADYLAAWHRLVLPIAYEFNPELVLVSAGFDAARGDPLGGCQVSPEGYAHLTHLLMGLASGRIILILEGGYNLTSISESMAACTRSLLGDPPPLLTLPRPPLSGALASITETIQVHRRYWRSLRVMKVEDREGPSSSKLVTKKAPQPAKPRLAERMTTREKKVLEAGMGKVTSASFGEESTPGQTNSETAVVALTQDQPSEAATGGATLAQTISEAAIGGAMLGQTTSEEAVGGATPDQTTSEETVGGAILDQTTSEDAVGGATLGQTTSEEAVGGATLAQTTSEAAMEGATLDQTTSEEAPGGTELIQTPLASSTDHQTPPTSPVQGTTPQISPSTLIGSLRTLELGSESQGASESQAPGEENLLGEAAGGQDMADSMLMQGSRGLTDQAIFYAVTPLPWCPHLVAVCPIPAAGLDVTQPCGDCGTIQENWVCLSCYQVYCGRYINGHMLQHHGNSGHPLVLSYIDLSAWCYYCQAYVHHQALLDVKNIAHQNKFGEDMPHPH

[5] = Drug uptake in human MDA-MB-231 cells assessed as decrease in fluorescence intensity at 25 uM for 1 to 24 hrs by fluorescence imaging analysis; type: ADME, cell-based; details: mda-mb-231, 25 µM, time 1-24 hrs
[6] = Drug uptake in human MDA-MB-231 cells assessed as increased fluorescence intensity at 5 uM for 1 to 24 hrs by fluorescence imaging analysis; type: ADME, cell-based; details: mda-mb-231, 25 µM, time 1-24 hrs
[7] = Drug uptake in human Hela cells assessed as increased fluorescence intensity at 5 to 25 uM for 1 to 24 hrs by fluorescence imaging analysis; type: ADME, cell-based; details: dose 1-25 µM, time 1-24 hrs
MDA-MB-231 = assay: Antiproliferation activity against human MDA-MB-231 cells assessed as reduction in cell viability incubated for 72 hrs by MTT assay; type: functional, cell-based
HeLa = assay: Antiproliferation activity against human Hela cells assessed as reduction in cell viability incubated for 72 hrs by MTT assay; type: functional, cell-based
[8] = Chemical stability of compound in PBS buffer assessed as drug degradation at 37 degree C; type: physicochemical

| SMILES | Activity [1] [nm] | Activity [2] [nm] | Activity [3] | IC50 (Histone deacetylase 1) [µM] | IC50 (Histone deacetylase 3) [µM] | IC50 [4] [µM] | Drug uptake [5] | Drug uptake [6] | Drug uptake [7] | Activity (MDA-MB-231) | Activity (HeLa) | Stabilty [8] | IC50 (MDA-MB-231; MDA-MB-231, 72 h) [µM] | IC50 (HeLa) [µM] |
| --- | --- | --- | --- | --- | --- | --- | --- | --- | --- | --- | --- | --- | --- | --- |
| CC[N+]1=C(/C=C/C2=C3Oc4cc(O)cc(OCCCCCCCC(=O)O)c4C=C3CCC2)C(C)(C)c2ccccc21.[I-] | 707 | 723 | Not Active | 9.69 | 11 | 13.8 | Active | Not Active | Not Active | inactive | inactive |  |  |  |
| CC[N+]1=C(/C=C/C2=C3Oc4cc(O)cc(OCCCCCCCC(=O)NO)c4C=C3CCC2)C(C)(C)c2ccccc21.[I-] | 707 | 723 | Not Active | 0.36 | 0.57 | 0.19 | Active | Active | Active |  |  | Stable | 9.2 | 5.91 |
